Patent US20070249559A1, “Hydrating Composition” (priority 2004, published 2007)

Assays:
[1] = Cycle exercise in the heat: 40 min constant load at 63% WRmax followed by 16.1 km time trial; type: in vivo, human; conditions: for Core temperature (Tc, rectal) during exercise post- vs pre-supplementation / Heart rate (HR) during exercise post- vs pre-supplementation: 30 C, 70% relative humidity; for RPE for breathlessness post- vs pre-supplementation / RPE for perceived leg fatigue post- vs pre-supplementation: Borg category scale; for Change in plasma volume (delta PV) during exercise post- vs pre-supplementation: calculated from Hb and PCV
Experimental: (§1) The experimental design and protocol are complicated and is best understood by reference to FIGS. 1 and 2. The study consisted of two supplementation regimens, each lasting 7 days and encompassing four cycle performance trials consisting of 40 min constant-load exercise at 63% WRmax followed by a 16.1 km (10 mile) time trial. Prior to the first of these experimental trials, familiarisation trials were completed until the variability of two consecutive trials was within 5%. Following this familiarisation period, subjects were matched for body mass (BM) and were randomised in a double blind fashion to either a Cr or a placebo (Pl) group. Subjects performed an exercise trial pre- and post-supplementation in both supplementation weeks. The first test was conducted at least 48 hours after each subject's final familiarisation trial. Each supplementation period started on the day after the first test and finished on the day of the second test.
(§2) Cr supplementation consisted of 22.8 g·d^−1 of Cr.H2O (equivalent to 10 g Cr×2 daily) and 140 g of glucose polymer (70 g×2 daily) made up in 2 L of warm to hot water for 6 days. […] Each supplementation was made freshly prior to consumption in order to prevent any degradation of Cr to creatinine (Crn). The Pl supplement consisted of 170 g·d^−1 of glucose polymer (85 g×2 daily). During the first and third week of the experimental regimen, subjects in both groups received either 1 g glycerol (Gly) per·kg BM or an equivalent amount of Pl (sucrose solution) diluted in each supplement. In both post-supplementation trials (days 8 and 22) subjects consumed the appropriate supplement 5 hours prior to exercise. […] All supplements had similar taste, texture and appearance and were placed in generic water bottles to ensure double blind administration. On each of the experimental test days (i.e. days 1, 8, 15, 22) subjects ingested 500 ml of water 3 hours prior to exercise and a further 500 ml of water 1 hour prior to exercise to ensure subjects were adequately hydrated prior to all exercise trials (American College of Sports Medicine, 2000).
(§3) Procedures. Subjects reported to the laboratory on the day of testing following a 3 hr fast and having refrained from alcohol, caffeine and strenuous exercise the day before. Upon arrival at the laboratory, height and nude BM were measured and body water compartments were estimated using a Bodystat Multiscan 5000 Bioimpedance analyser (Bodystat Ltd, Isle of Man) (Van Loan, 1990). This method allows TBW and ECW to be estimated; from these measurements ICW can also be deduced. The bioimpedance measurements were taken while the subjects lay comfortably in a supine position on a non-conductive surface with their arms and legs slightly abducted. Following the bioimpedance measurement, a flexible rectal thermistor was inserted 10 cm beyond the anal sphincter to measure rectal temperature (Tre), an index of core temperature (Tc) and a heart rate (HR) monitor (Polar Sports Tester, Polar Electro Oy, Kempele, Finland) was attached. The subject's right hand and forearm were immersed in water at 42-44° C. for 15 min in order to allow for arterialisation of the venous blood (Forster at al. 1972). Following this, a 21 G cannula was introduced into a superficial vein on the dorsal surface of the heated hand. The subject was transferred to the climatic chamber (ambient temperature 30±1° C. with a relative humidity of 70±2% and air velocity of approximately 1.8 m·sec^−1) and seated on the cycle ergometer for 5 min. During this period thermistors (C8600 10 channel microprocessor, Comark, Hertfordshire, UK) were attached to the subject's chest, tricep, thigh and calf for the determination of weighted mean skin temperature (Tskin) (Ramanthan, 1964). The subject remained seated on the cycle ergometer for a further 1 min while resting HR, Tre, Tskin were recorded and a blood sample (10 ml) obtained. The venous cannula was kept patent by a 10 ml infusion of isotonic saline between samples. […]

[2] = Body mass and body water compartments (bioimpedance) before and after 7-day supplementation; type: in vivo, human; conditions: for Change in extracellular water (ECW) post- vs pre-supplementation / Change in intracellular water (ICW) post- vs pre-supplementation / Change in total body water (TBW) post- vs pre-supplementation: bioimpedance; for Change in extracellular water (ECW) post- vs pre-supplementation / Change in intracellular water (ICW) post- vs pre-supplementation / Change in total body water (TBW) post- vs pre-supplementation / Change in body mass (BM) post- vs pre-supplementation: supplementation week; for Change in body mass (BM) post- vs pre-supplementation: well-trained cyclists, final supplement 5 hours prior
Experimental: as §1, §2, §3

[3] = consumed with a substantial fluid intake; by reducing urinary volume; cited from earlier work
[4] = Side effects of the supplementation protocol; type: in vivo, human; conditions: 18 subjects
Text: as §2
Side effects. […] 3 subjects from each group correctly identified the subject group and 2 subjects correctly identified the Gly supplementation week, while, all other subjects were unsure of the treatment they received.

[5] = bioimpedance estimate after supplementation

Compound | Core temperature (Tc, rectal) during exercise post- vs pre-supplementation [1] | Heart rate (HR) during exercise post- vs pre-supplementation [1] | RPE for breathlessness post- vs pre-supplementation [1] | RPE for perceived leg fatigue post- vs pre-supplementation [1] | Change in plasma volume (delta PV) during exercise post- vs pre-supplementation [1] | 16.1 km time trial performance ([1]; post- vs pre-supplementation) | Increase in plasma volume (PV) ([2]; assuming 7.5% of the increase in TBW is plasma) | Increase in TBW (estimated, on average) [2, 5] | Part of TBW increase accounted for by increase in ICW [2, 5] | Change in extracellular water (ECW) post- vs pre-supplementation [2] | Change in intracellular water (ICW) post- vs pre-supplementation [2] | Change in total body water (TBW) post- vs pre-supplementation [2] | Change in body mass (BM) post- vs pre-supplementation [2] | Fluid expansion or retention above a fluid bolus alone [3] | Part of TBW increase accounted for by increase in ECW [2, 5] | Side effects reported [4]
CN(CC(=O)O)C(=N)N [Cr, methyl guanidine acetic acid] | significantly lower | significantly lower | Lower | Significantly lower | lower | no effect | approximately 51 ml | 680 mL | 500 mL | increased significantly | increased significantly | increased significantly | increased significantly | – | – | –
OCC(O)CO [Gly, glycerol] | not significantly different | significantly lower | no such effect | no such effect | not significantly different | – | – | 600 mL | – | increased significantly | no significant increase | increased significantly | increased significantly | ~600 mL | 400 mL | only one report of gastrointestinal distress
